Data published in patent US6894038B2, “Use of biogenic estriol diester prodrugs for the treatment of autoimmune diseases” (Schering Aktiengesellschaft, priority 2002, dated 2005).

Tests used:
Lewis rat EAE model = assay: Lewis rat acute EAE model, clinical score; assay type: in vivo; settings: female Lewis rats, 1000 ug/rat s.c. on day 1 and day 15; chronic stage of disease; ANOVA vs vehicle p≦0.028; FIG. 1
[1] = test system: CD4+ lymphocytes of MS patients; settings: concentrations at a similar level as in pregnancy; Correale et al. 1998; cited from earlier work
[2] = oral, 12 mg/day; Lindsay et al. 1979; cited from earlier work
[3] = test system: experimental autoimmune encephalomyelitis (EAE); settings: levels equal to those found in pregnancy; Kim et al. 1999, Jansson et al. 1994; cited from earlier work
[4] = Heithecker et al., 1991; cited from earlier work
[5] = administered orally; cited from earlier work

Row | SMILES | clinical score (EAE) (Lewis rat EAE model) | secretion of anti-inflammatory cytokine IL-10 [1] | osteoprotective effects [2] | amelioration of disease (EAE) [3] | half-life [4] [h] | bioavailability [5]
1 | CCCCCC(=O)Oc1ccc2c(c1)CC[C@@H]1[C@@H]2CC[C@@]2(C)[C@H]1C[C@@H](O)[C@@H]2OC(=O)CCCCC [3,17β-di-n-hexanoyloxy-1,3,5(10)-estratriene-16α-ol] | efficacious in lowering the clinical score |  |  |  |  | 
2 | C[C@]12CC[C@@H]3c4ccc(O)cc4CC[C@H]3[C@@H]1C[C@@H](O)[C@@H]2O [estriol] |  | stimulated | not able to show the osteoprotective effects | capable of ameliorating disease | 1.5 to 5.3 | low
